Experimental data taken from patent US20250263436A1, “BROAD-SPECTRUM ANTIVIRAL DRUG FOR ENTEROVIRUS, AND APPLICATION” (WUHAN INSTITUTE OF VIROLOGY, CHINESE ACADEMY OF SCIENCES, priority 2020, published 2025).
Values joined by “and” are separate entries in the source; they are usually repeats but may differ in a detail not shown here. Equal values may be shown once. Where no end group is shown, it is not given here.

Tests used:
[1] = Cytotoxicity of polypeptides in Vero cells (CCK-8); assay type: cell-based
Description: (§1) Therefore, this standard was testified by cytotoxicity assay, and the cells without any treatment were used as a control group.
(§2) (1) Vero cells were plated in a 96-well plate at 100 μL per well.
(§3) (2) When the cells grew to a confluence of 70%-80%, the DMEM medium containing 10% serum was replaced with a DMEM medium containing 2% serum, and a certain concentration gradient of polypeptide RQ or LQ or SQ was added, so that the final concentrations of the polypeptide in the wells were 0.073242 μM, 0.146484 μM, 0.292969 μM, 0.585938 μM, 1.171875 μM, 2.34375 μM, 4.6875 μM, 9.375 μM, 18.75 μM, 37.5 μM, 75 μM and 150 μM, respectively.
(§4) (3) The samples were collected 24 h after the addition of the polypeptide, and then 10 μL of live cell detection reagent CCK-8 was added to each well and mixed well.
(§5) (4) The plate was placed at 37° C. for 2 h.
(§6) (5) The absorbance value at OD450 was detected by a microplate reader.
(§7) The CC50 of each polypeptide was calculated taking the cell viability of untreated cells as 100%.

[2] = test system: Vero cells; assay: Cytotoxicity of polypeptides in Vero cells (CCK-8); assay type: cell-based; settings: Vero cells, 24 h
Description: as §1, §2, §3, §4, §5, §6, §7

[3] = test system: EV71; assay: Inhibition of EV71 in Vero cells (viral RNA, qRT-PCR); assay type: cell-based, enterovirus 71 (EV71); settings: anti-EV71 in Vero cells
Description: (1) Different cells were plated in a 24-well plate.
(2) When the cells grew to a confluence of 70%-80%, the DMEM medium containing 10% serum was replaced with a DMEM medium containing 2% serum (the DMEM medium containing 2% serum was added in each well at an amount of 0.5 mL), and 5 μL of EV71 virus of 1×10^6 PFU/mL was added to each well.
(3) After 1 h, different polypeptides (RQ or control TAT) with final concentrations of 0.3125 μM, 0.625 μM, 1.25 μM, 2.5 μM, and 5 μM were added respectively. The group without polypeptide added was used as a control.
(4) The samples were collected 24 h after the infection of EV71 virus, and RNA was extracted with the total RNA extraction kit.
(5) The supernatant was discarded, then 350 μL of TRK lysate was added to each well, and the plate was put on a shaker for 5 min.
(6) 350 μL of 70% ethanol (DEPC) was added to each well, and then the plate was put on a shaker for 5 min.
(7) The solution in each well was transferred to a RNA extraction column for 1 min of centrifugation at 12000 g.
(8) The solution obtained in the recovery tube was reloaded on the column again for 1 min of centrifugation at 12000 g.
(9) RNA washing buffer 1 was added in the column for 30 s of centrifugation at 12000 g.
(10) RNA washing buffer 2 was added in the column for 1 min of centrifugation at 12000 g.
(11) Step (10) was repeated.
(12) The column alone was centrifuged at 12000 g for 2 min to completely remove the residual RNA washing buffer.
(13) 50 μL of DEPC water was added to the column for 2 min of centrifugation at 12000 g.
(14) 2 μL of RNA sample was subjected to a fluorescence quantitative experiment using the one step qRT-PCR kit.
(1) Vero E6 cells were plated in a 24-well plate.
(3) After 1 h, different polypeptides (LQ or SQ) with final concentrations of 0.3125 μM, 0.625 μM, 1.25 μM, 2.5 μM, and 5 μM were added respectively. The group without polypeptide added was used as a control.

[4] = test system: EV71; assay: Inhibitory activity on EV71 in RD cells by CCK8 method; assay type: cell-based, enterovirus 71 (EV71); settings: for IC50: EV71 in RD cells, CCK8 method; for Inhibition rate on EV71 virus (%): RD cells, 0.1 MOI, 24 h, CCK8
Description: (1) RD cells were plated in a 96-well plate at 100 μL per well.
(2) When the cells grew to a confluence of 70%-80%, the DMEM medium containing 10% serum was replaced with a DMEM medium containing 2% serum.
(3) The polypeptide drug was gradiently diluted with the DMEM containing 2% FBS into concentrations of 0.15625 μM, 0.3125 μM, 0.625 μM, 1.25 μM, 2.5 μM, and 5 μM, and then added to a new 96-well plate at 100 μL per well, with 3 replicate wells for each concentration.
(4) The diluted virus was added to the above wells at 100 μL per well. The wells with no drug and no virus added and the wells with no drug but virus added were set as controls respectively, with a final concentration of virus of 0.1 MOI.
(4) The mixture was transferred into the 96-well plate plated with cells for another 24 h of culture, and the inhibitory activity of the polypeptide on the virus was determined by a CCK8 kit.
(5) The inhibition rates of different concentrations of the polypeptides on virus infection were calculated according to a calculation formula of: inhibition rate of polypeptide=(well with drug-well with virus)×100%/(well with no drug-well with virus).
(3) The polypeptide drug was gradiently diluted with the DMEM containing 2% FBS into concentrations of 0.15625 μM, 0.3125 μM, 0.625 μM, 1.25 μM, 2.5 μM, and 5 μM, and then added to a new 96-well plate at 100 μL per well, with 3 replicate wells for each concentration. (4) The diluted virus was added to the above wells at 100 μL per well. The wells with no drug and no virus added and the wells with no drug but virus added were set as controls respectively, with a final concentration of virus of 0.1 MOI.

CC[C@H](C)[C@H](NC(=O)[C@H](C)NC(=O)[C@H](CO)NC(=O)[C@H](CCCNC(=N)N)NC(=O)[C@H](CC(N)=O)NC(=O)[C@H](CC(N)=O)NC(=O)[C@H](Cc1ccc(O)cc1)NC(=O)[C@H](CCC(=O)O)NC(=O)[C@H](CCCNC(=N)N)NC(=O)[C@@H](NC(=O)[C@H](CC(C)C)NC(=O)CNC(=O)[C@H](CO)NC(=O)CNC(=O)[C@H](CCCNC(=N)N)NC(=O)[C@H](CCCNC(=N)N)NC(=O)[C@H](CCCNC(=N)N)NC(=O)[C@H](CCC(N)=O)NC(=O)[C@H](CCCNC(=N)N)NC(=O)[C@H](CCCNC(=N)N)NC(=O)[C@H](CCCCN)NC(=O)[C@H](CCCCN)NC(=O)[C@H](CCCNC(=N)N)NC(=O)CNC(=O)[C@@H](N)Cc1ccc(O)cc1)[C@@H](C)CC)C(=O)NCC(=O)N[C@@H](CC(N)=O)C(=O)N[C@H](C(=O)N[C@H](C(=O)N[C@@H](CCC(=O)O)C(=O)N[C@@H](C)C(=O)N[C@@H](CC(C)C)C(=O)N[C@@H](Cc1ccccc1)C(=O)N[C@@H](CCC(N)=O)C(=O)O)[C@@H](C)CC)[C@@H](C)O [LQ]
CC50 at 24 h ([1]; African green monkey, Table 1 (Vero cells)): > 150 µM
viability at 24 h, 0.073242 µM ([1]; Vero cells, polypeptide 0.073242 μM, 24 h, read-out: Cell viability (%)): 100%
viability at 24 h, 0.146484 µM ([1]; Vero cells, polypeptide 0.146484 μM, 24 h, read-out: Cell viability (%)): 103%
viability at 24 h, 0.292969 µM ([1]; Vero cells, polypeptide 0.292969 μM, 24 h, read-out: Cell viability (%)): 112%
viability at 24 h, 0.585938 µM ([1]; Vero cells, polypeptide 0.585938 μM, 24 h, read-out: Cell viability (%)): 110%
viability at 24 h, 1.17188 µM ([1]; Vero cells, polypeptide 1.171875 μM, 24 h, read-out: Cell viability (%)): 111%
viability at 24 h, 2.34375 µM ([1]; Vero cells, polypeptide 2.34375 μM, 24 h, read-out: Cell viability (%)): 105%
viability at 24 h, 4.6875 µM ([1]; Vero cells, polypeptide 4.6875 μM, 24 h, read-out: Cell viability (%)): 111%
viability at 24 h, 9.375 µM ([1]; Vero cells, polypeptide 9.375 μM, 24 h, read-out: Cell viability (%)): 114%
viability at 24 h, 18.75 µM ([1]; Vero cells, polypeptide 18.75 μM, 24 h, read-out: Cell viability (%)): 109%
viability at 24 h, 37.5 µM ([1]; Vero cells, polypeptide 37.5 μM, 24 h, read-out: Cell viability (%)): 117%
viability at 24 h, 150 µM ([1]; Vero cells, polypeptide 150 μM, 24 h, read-out: Cell viability (%)): 72.2%
Cell viability (%) ([2]; polypeptide 0.073242 μM): 105.9% and 97.02%
Cell viability (%) ([2]; polypeptide 0.146484 μM): 104.7744% and 101.9913%
Cell viability (%) ([2]; polypeptide 0.292969 μM): 106.5265% and 104.7619%
Cell viability (%) ([2]; polypeptide 0.585938 μM): 110.5563% and 108.0087%
Cell viability (%) ([2]; polypeptide 1.171875 μM): 115.1555% and 110.4762%
Cell viability (%) ([2]; polypeptide 2.34375 μM): 106.3075% and 107.1861%
Cell viability (%) ([2]; polypeptide 4.6875 μM): 104.8489% and 112.5108%
Cell viability (%) ([2]; polypeptide 9.375 μM): 119.5795% and 113.5931%
Cell viability (%) ([2]; polypeptide 18.75 μM): 115.6373% and 110.3247%
Cell viability (%) ([2]; polypeptide 37.5 μM): 99.1853% and 97.1429%
Cell viability (%) ([2]; polypeptide 75 μM): 108.2318% and 87.6084% and 90.8658%
Cell viability (%) ([2]; polypeptide 150 μM): 83.0968% and 80.9091%
IC50 [3]: 2260 nM

YGRKKRRQRRRGSGGNTIEALFQ [GQ]
IC50 [4]: 1780 nM
Inhibition rate on EV71 virus (%) ([4]; polypeptide 0.15625 μM): 7.219% and 10.3851% and 5.4678%
Inhibition rate on EV71 virus (%) ([4]; polypeptide 0.3125 μM): 14.8883% and 12.0678% and 14.91%
Inhibition rate on EV71 virus (%) ([4]; polypeptide 0.625 μM): 28.8333% and 30.5125% and 26.48%
Inhibition rate on EV71 virus (%) ([4]; polypeptide 1.25 μM): 43.1263% and 40.6161% and 31.07%
Inhibition rate on EV71 virus (%) ([4]; polypeptide 2.5 μM): 51.8367% and 58.9472% and 57.2507%
Inhibition rate on EV71 virus (%) ([4]; polypeptide 5 μM): 71.5094% and 77.9438% and 84.7439%

YGRKKRRQRRRGSGIEALFQ [IEQ]
IC50 [4]: 2480 nM
Inhibition rate on EV71 virus (%) ([4]; polypeptide 0.15625 μM): 11.724% and 8.44% and 7.627%
Inhibition rate on EV71 virus (%) ([4]; polypeptide 0.3125 μM): 18.8643% and 15.5487% and 10.6223%
Inhibition rate on EV71 virus (%) ([4]; polypeptide 0.625 μM): 20.7161% and 25.7224% and 19.5166%
Inhibition rate on EV71 virus (%) ([4]; polypeptide 1.25 μM): 33.6936% and 35.484% and 28.4286%
Inhibition rate on EV71 virus (%) ([4]; polypeptide 2.5 μM): 45.6995% and 48.4526% and 57.4377%
Inhibition rate on EV71 virus (%) ([4]; polypeptide 5 μM): 69.4739% and 61.3527% and 68.272%

YGRKKRRQRRRGSGIGNTIEALFQ [IQ]
IC50 [4]: 1640 nM
Inhibition rate on EV71 virus (%) ([4]; polypeptide 0.15625 μM): 12.0331% and 13.5849% and 7.368%
Inhibition rate on EV71 virus (%) ([4]; polypeptide 0.3125 μM): 18.7401% and 22.4297% and 22.9573%
Inhibition rate on EV71 virus (%) ([4]; polypeptide 0.625 μM): 26.0539% and 31.1744% and 34.8606%
Inhibition rate on EV71 virus (%) ([4]; polypeptide 1.25 μM): 41.6022% and 42.578% and 47.4848%
Inhibition rate on EV71 virus (%) ([4]; polypeptide 2.5 μM): 55.7952% and 50.9781% and 60.5503%
Inhibition rate on EV71 virus (%) ([4]; polypeptide 5 μM): 73.2884% and 68.7332% and 83.2884%

YGRKKRRQRRRGSGNTIEALFQ [NTQ]
IC50 [4]: 2280 nM
Inhibition rate on EV71 virus (%) ([4]; polypeptide 0.15625 μM): 2.654% and 4.744% and 5.743%
Inhibition rate on EV71 virus (%) ([4]; polypeptide 0.3125 μM): 14.83% and 10.2542% and 13.3898%
Inhibition rate on EV71 virus (%) ([4]; polypeptide 0.625 μM): 20.84% and 30.339% and 24.339%
Inhibition rate on EV71 virus (%) ([4]; polypeptide 1.25 μM): 39.17% and 47.6271% and 50.8202%
Inhibition rate on EV71 virus (%) ([4]; polypeptide 2.5 μM): 45.42% and 51.9492% and 59.661%
Inhibition rate on EV71 virus (%) ([4]; polypeptide 5 μM): 68.27% and 52.5424% and 61.6949%

YGRKKRRQRRRGSGTIEALFQ [TQ]
IC50 [4]: 1760 nM
Inhibition rate on EV71 virus (%) ([4]; polypeptide 0.15625 μM): 3.314% and 5.356% and 7.23%
Inhibition rate on EV71 virus (%) ([4]; polypeptide 0.625 μM): 33.3736% and 28.4011% and 30.3085%
Inhibition rate on EV71 virus (%) ([4]; polypeptide 1.25 μM): 35.3209% and 40.3898% and 46.2471%
Inhibition rate on EV71 virus (%) ([4]; polypeptide 2.5 μM): 59.3508% and 67.3559% and 55.2235%
Inhibition rate on EV71 virus (%) ([4]; polypeptide 5 μM): 71.3029% and 65.3559% and 69.2301%
